Test results reported in the RepoRT retention time repository (doi:10.1016/j.jhazmat.2019.121712).

Assay: Thermo Scientific Acclaim RSLC 120 C18, 100 × 2.1 mm, 2.2 µm, 30 °C; A: 90% water + 10% methanol + 0.01% formic acid + 5 mM ammonium formate; B: methanol + 0.01% formic acid + 5 mM ammonium formate; gradient (min/%B) 0.1/1 3/39 14/99.9 16/99.9
Settings: stereoisomer not certain
Molecule `CC=C1CC(C)C(C)(O)C(=O)OCC2=CCN3CCC(OC1=O)C23` (stereo unspecified) has an LC retention time of 4.62 min.
`COc1ccc2c3c1OC1C(OC4OC(C(=O)O)C(O)C(O)C4O)C=CC4C(C2)NCCC341` (stereo unspecified) showed an LC retention time of 2.48 min.
For `CCNc1nc(NCC)nc(SC)n1`, the LC retention time was 8.14 min.
With `CSC1=NC(C)(c2ccccc2)C(=O)N1Nc1ccccc1` (stereo unspecified) the LC retention time was 9.22 min.
In the case of `Cc1ccc(N=CN(C)C=Nc2ccc(C)cc2C)c(C)c1`, the LC retention time was 13.3 min.
`CNCC1CCCCC1(O)c1cccc(OC)c1` (stereo unspecified) showed an LC retention time of 5.3 min.
With `CC1=C(C(=O)Nc2ccccc2)SCCO1` the LC retention time was 7.46 min.
For `CCC(C(=O)c1ccc2c(c1)OCO2)N(C)C` (stereo unspecified), the LC retention time was 4.38 min.
`CCCOc1ccc(S(=O)(=O)NCCC2CCCN2C)cc1-c1nc2c(CCC)nn(C)c2c(=O)[nH]1` (stereo unspecified) showed an LC retention time of 7.83 min.
`CC(C)(C)c1ccc(C(=O)CCCN2CCC(OC(c3ccccc3)c3ccccc3)CC2)cc1` gave an LC retention time of 10.9 min.
Work on `N#CC1CCCN1C(=O)CNC12CC3CC(CC(O)(C3)C1)C2` (stereo unspecified) yielded an LC retention time of 3.26 min.
Molecule `CN1CCN2c3ncc(O)cc3Cc3ccccc3C2C1` (stereo unspecified) has an LC retention time of 4.54 min.
`CCOC1Oc2ccc(OS(C)(=O)=O)cc2C1(C)C` (stereo unspecified) showed an LC retention time of 9.14 min.
For `CCNC(=O)NC(=O)C(C#N)=NOC`, the LC retention time was 5.6 min.
`CCc1cc2c(s1)-n1c(C)nnc1CN=C2c1ccccc1` gave an LC retention time of 8.43 min.
Molecule `COc1ccc(CC(C)N)cc1OC` (stereo unspecified) has an LC retention time of 3.94 min.
In the case of `COc1cccc(C2(O)CCCCC2CN(C)C)c1` (stereo unspecified), the LC retention time was 4.88 min.
With `Cc1cc2c(s1)Nc1ccccc1N=C2N1CCN(C)CC1` the LC retention time was 4.99 min.
For `CCCc1nn(C)c2c(=O)[nH]c(-c3cc(S(=O)(=O)N4CCCCC4)ccc3OCC)nc12`, the LC retention time was 10.9 min.
For `C=CCC1(C(C)C#CCC)C(=O)NC(=O)N(C)C1=O` (stereo unspecified), the LC retention time was 9.09 min.
With `CON=C(C(=O)OC)c1ccccc1COc1ccccc1C` the LC retention time was 10.8 min.
With `CCOC(=O)C1=NOC(c2ccccc2)(c2ccccc2)C1` the LC retention time was 10.7 min.
Molecule `CCCCCCCCCc1ccc(OCCO)cc1` has an LC retention time of 13.2 min.
In the case of `CCOP(=O)(OCC)OP(=O)(OCC)OCC`, the LC retention time was 6.49 min.
In the case of `CCN1CC2(COC)C(O)CC(OC)C34C5CC6(O)C(OC)C(O)C(OC(C)=O)(C5C6OC(=O)c5ccccc5)C(C(OC)C23)C14` (stereo unspecified), the LC retention time was 7.09 min.
`Cc1c(N(C)CS(=O)(=O)O)c(=O)n(-c2ccccc2)n1C` showed an LC retention time of 4.49 min.
Work on `Nc1ncn[nH]1` yielded an LC retention time of 1.44 min.
In the case of `CC(C)(C)c1ccc(CCOc2ncnc3ccccc23)cc1`, the LC retention time was 13.7 min.
`COc1ccc2c3c1OC1C(O)C=CC4C(C2)N(C)CCC341` (stereo unspecified) showed an LC retention time of 3.4 min.
For `CN(CCOc1ccc(CC2SC(=O)NC2=O)cc1)c1ccccn1` (stereo unspecified), the LC retention time was 6.98 min.
With `COC(=O)C1=C(C#N)NC(C)=C(C(=O)OC(C)C)C1c1cccc([N+](=O)[O-])c1` (stereo unspecified) the LC retention time was 10.3 min.
Molecule `COC(=O)C1=C(C)NC(C)=C(C(=O)OCC(C)C)C1c1ccccc1[N+](=O)[O-]` (stereo unspecified) has an LC retention time of 10.6 min.
Work on `COc1cccc(N(C)C(=S)Oc2cccc(C(C)(C)C)c2)n1` yielded an LC retention time of 12.5 min.
Molecule `CCc1c(C)[nH]c2c1C(=O)C(CN1CCOCC1)CC2` (stereo unspecified) has an LC retention time of 4.89 min.
`CCN(CC)C(C)C(=O)c1ccccc1` (stereo unspecified) gave an LC retention time of 4.11 min.
Work on `Cc1ccc(S(=O)(=O)NC(=O)NN2CCCCCC2)cc1` yielded an LC retention time of 8.09 min.
Molecule `Cc1ccc(C2(c3ccccc3)NC(=O)NC2=O)cc1` (stereo unspecified) has an LC retention time of 8.12 min.
`O=C(O)CCCCC1SCC2NC(=O)NC21` (stereo unspecified) showed an LC retention time of 4.44 min.
`c1ccc(CN(CC2=NCCN2)c2ccccc2)cc1` showed an LC retention time of 6.41 min.
`O=C(O)Cc1cccc2ccccc12` gave an LC retention time of 7.76 min.
In the case of `CCN(C(=O)SCc1ccccc1)C(C)C(C)C` (stereo unspecified), the LC retention time was 12.2 min.
Work on `COc1ccc(CCN(C)CCCC(C#N)(c2ccc(OC)c(OC)c2)C(C)C)cc1OC` (stereo unspecified) yielded an LC retention time of 7.03 min.
Work on `C=C1CC(=CC)C(=O)OC2CC[N+]3([O-])CC=C(COC(=O)C1(C)O)C23` (stereo unspecified) yielded an LC retention time of 4.5 min.
Molecule `CCOP(=S)(Oc1cnc(C(C)(C)C)nc1)OC(C)C` (stereo unspecified) has an LC retention time of 12.3 min.
Work on `CNCCC(Oc1cccc2ccccc12)c1cccs1` (stereo unspecified) yielded an LC retention time of 8.11 min.
Work on `CCCCC1C(=O)N(c2ccccc2)N(c2ccccc2)C1=O` yielded an LC retention time of 8.98 min.
For `Nc1ccc(S(=O)(=O)Nc2ccccn2)cc1`, the LC retention time was 3.8 min.
`CCC1C(=O)OCC1Cc1cncn1C` (stereo unspecified) gave an LC retention time of 2.74 min.
For `Cc1ccc(C(CCN(C)C)c2ccccc2)cc1` (stereo unspecified), the LC retention time was 7.47 min.
`CCCCC1=NC2(CCCC2)C(=O)N1Cc1ccc(-c2ccccc2-c2nn[nH]n2)cc1` gave an LC retention time of 9.44 min.
With `CC(NCCC(c1ccccc1)c1ccccc1)c1ccccc1` (stereo unspecified) the LC retention time was 8.54 min.
With `CN(C)CCC=C1c2ccccc2CCc2ccccc21` the LC retention time was 8.23 min.
Work on `CC(CN1c2ccccc2Sc2cccnc21)N(C)C` (stereo unspecified) yielded an LC retention time of 6.47 min.
Molecule `COc1ccc(CNC(=O)c2cc([N+](=O)[O-])ccc2NC(C)CO)cc1OC` (stereo unspecified) has an LC retention time of 7.8 min.
Work on `CCCNCC(O)COc1ccccc1C(=O)CCc1ccccc1` (stereo unspecified) yielded an LC retention time of 7.81 min.
Molecule `CC(C)(C)NCC(O)c1cc(O)cc(O)c1` (stereo unspecified) has an LC retention time of 3.11 min.
With `CCCCn1cc(C(=O)c2c(C)ccc3ccccc23)c2ccccc21` the LC retention time was 12.3 min.
With `COP(=S)(OC)Oc1ccc(SC)c(C)c1` the LC retention time was 11 min.
`CC(C)N(C(=O)CS(=O)(=O)O)c1ccccc1` showed an LC retention time of 5.46 min.
`CC(=O)NCCCS(=O)(=O)O` gave an LC retention time of 1.4 min.
With `CNC(C)Cc1ccc(O)c(OC)c1` (stereo unspecified) the LC retention time was 3.19 min.
In the case of `COc1ccc(C(CN(C)C)C2(O)CCCCC2)cc1` (stereo unspecified), the LC retention time was 6.14 min.
For `O=c1ccc2cc(OC3OC(CO)C(O)C(O)C3O)c(O)cc2o1` (stereo unspecified), the LC retention time was 3.69 min.
Work on `CCS(=O)(=O)c1cccnc1S(=O)(=O)NC(=O)Nc1nc(OC)cc(OC)n1` yielded an LC retention time of 7.09 min.
For `Cn1c(=O)c2c(ncn2CCO)n(C)c1=O`, the LC retention time was 4.09 min.
`CC(C)(C)c1n[nH]c(=O)n(N)c1=O` gave an LC retention time of 5.89 min.
For `CCSCc1ccccc1OC(=O)NC`, the LC retention time was 7.7 min.
Work on `CCCc1cc(OC)c(CCN)cc1OC` yielded an LC retention time of 7.46 min.
For `COc1ccc2c3c1OC1C(O)CCC4C(C2)N(C)CCC341` (stereo unspecified), the LC retention time was 3.36 min.
In the case of `CC(C)OC(=O)Nc1ccc2nc(-c3cscn3)[nH]c2c1`, the LC retention time was 7.66 min.
`N=C1NC(=O)C(c2ccccc2)O1` (stereo unspecified) showed an LC retention time of 4.34 min.
Molecule `COCC(=O)N(c1c(C)cccc1C)C(C)C(=O)OC` (stereo unspecified) has an LC retention time of 8.22 min.
With `CCC1OC(=O)CC(O)C(C)C(OC2OC(C)C(O)C(N(C)C)C2O)C(CCN2CC(C)CC(C)C2)CC(C)C(=O)C=CC(C)=CC1COC1OC(C)C(O)C(OC)C1OC` (stereo unspecified) the LC retention time was 6.69 min.
`CC(C)NC(=O)c1ccccc1O` showed an LC retention time of 7.14 min.
Molecule `NCC1CCCCC1(O)c1cccc(O)c1` (stereo unspecified) has an LC retention time of 4.36 min.
Molecule `CCOP(=S)(OCC)Oc1ccc([N+](=O)[O-])cc1` has an LC retention time of 10.7 min.
For `CCN(CC)C(=O)N1CCN(C)CC1`, the LC retention time was 3.16 min.
`NS(=O)(=O)c1ccc(N2CCCCS2(=O)=O)cc1` showed an LC retention time of 4.11 min.
With `CC(C)(C)NCC(O)COc1ccccc1C1CCCC1` (stereo unspecified) the LC retention time was 9.01 min.
`CC(C)(C)NCC(O)COc1cccc2c1SCCC2` (stereo unspecified) showed an LC retention time of 6.76 min.
`CC(C)(C)NC(=O)C1CN(Cc2cccnc2)CCN1CC(O)CC(Cc1ccccc1)C(=O)NC1c2ccccc2CC1O` (stereo unspecified) showed an LC retention time of 9.79 min.
Work on `CCCSc1cc(OC)c(CCN)cc1OC` yielded an LC retention time of 6.98 min.
Work on `CC(C(=O)c1ccc2c(c1)OCO2)N1CCCC1` (stereo unspecified) yielded an LC retention time of 4.13 min.
With `CCCNC(C)C(=O)Nc1ccccc1C` (stereo unspecified) the LC retention time was 4.69 min.
Work on `CC(C)(N)Cc1ccccc1` yielded an LC retention time of 4.64 min.
For `COc1nc(NC(C)C)nc(NC(C)C)n1`, the LC retention time was 8.86 min.
For `CN1C2CC(OC(=O)C(CO)c3ccccc3)CC1C1OC12` (stereo unspecified), the LC retention time was 3.83 min.
In the case of `O=c1[nH]c2c(c(=O)n1C1CCCCC1)CCC2`, the LC retention time was 8.27 min.
Molecule `COc1ccc(Oc2ccc(NC(=O)N(C)C)cc2)cc1` has an LC retention time of 8.43 min.
In the case of `CCC(CO)NC(=O)C1C=C2c3cccc4[nH]cc(c34)CC2N(C)C1` (stereo unspecified), the LC retention time was 4.34 min.
For `CN1C2CCC1C(C(=O)O)C(OC(=O)c1ccccc1)C2` (stereo unspecified), the LC retention time was 4.68 min.
`Cc1cccc(C)c1OCC(=O)NC(Cc1ccccc1)C(O)CC(Cc1ccccc1)NC(=O)C(C(C)C)N1CCCNC1=O` (stereo unspecified) gave an LC retention time of 11.8 min.
Work on `COC(=O)Nc1nc2ccccc2[nH]1` yielded an LC retention time of 5.46 min.
With `C=C1CC2C(CCC3(C)C(=O)CCC23)C2(C)C=CC(=O)C=C12` (stereo unspecified) the LC retention time was 9.03 min.
With `C=C(c1ccc(C(=O)O)cc1)c1cc2c(cc1C)C(C)(C)CCC2(C)C` the LC retention time was 14.1 min.
In the case of `COc1ccc2cc(CCC(C)=O)ccc2c1`, the LC retention time was 9.82 min.
Molecule `CN(C)CCN(Cc1ccccc1)c1ccccn1` has an LC retention time of 5.86 min.
Work on `OCCN1CCN(CCCN2c3ccccc3C=Cc3ccccc32)CC1` yielded an LC retention time of 7.83 min.
`Nc1ccc(O)c(C(=O)O)c1` showed an LC retention time of 1.63 min.
`CCCc1nn(C)c2c(=S)nc(-c3cc(C(=S)N4CCN(C)CC4)ccc3OCC)[nH]c12` gave an LC retention time of 11.5 min.
`COCC(C)N(C(=O)C(=O)O)c1c(C)csc1C` (stereo unspecified) gave an LC retention time of 6.36 min.
In the case of `COc1ccc(CC2c3cc(OC)c(OC)cc3CCN2C)cc1OC` (stereo unspecified), the LC retention time was 4.71 min.
`Cc1cn(C2CC(N=[N+]=[N-])C(CO)O2)c(=O)[nH]c1=O` (stereo unspecified) showed an LC retention time of 4.56 min.
For `COC(=O)C1=C(C)NC(C)=C(C(=O)OC(C)C)C1c1cccc2nonc12` (stereo unspecified), the LC retention time was 9.61 min.
`CCCC1C(=O)N2C(N(C)C)=Nc3ccc(C)cc3N2C1=O` (stereo unspecified) showed an LC retention time of 6.54 min.
`CCC(=O)C(CC(C)N(C)C)(c1ccccc1)c1ccccc1` (stereo unspecified) showed an LC retention time of 8.04 min.
Molecule `CN1CCN(C)C1=O` has an LC retention time of 3.53 min.
Molecule `O=C(Nc1cccc(C2=NCCN2)c1)Nc1cccc(C2=NCCN2)c1` has an LC retention time of 3.78 min.
For `COc1cc(NS(=O)(=O)c2ccc(N)cc2)nc(OC)n1`, the LC retention time was 5.6 min.
For `CN(C)CCC=C1c2ccccc2C=Cc2ccccc21`, the LC retention time was 7.95 min.
For `COCCN(C(=O)CS(=O)(=O)O)c1c(C)cccc1C`, the LC retention time was 5.54 min.
